Assays:
[1] = system: bait averse/resistant German cockroach (IHOP strain), Blattella germanica; assay: Knockdown/mortality of male cockroaches under continuous exposure on treated glazed tile; assay type: in vivo; conditions: German cockroach IHOP
Method: Treatments were allowed to dry overnight. […] Treatments were replicated a minimum of three times. Evaluations for cockroach knockdown/mortality were made at various intervals for 1 hour and at 24 hours after exposure.
Treatments were allowed to dry overnight. […] Evaluations for cockroach knockdown/mortality were made at various intervals and at 60 minutes after exposure.
(§1) Treatments were allowed to dry overnight. […] Treatments were replicated a minimum of three times.

[2] = system: susceptible/normal German cockroach (Monheim strain), Blattella germanica; assay: as above; assay type: in vivo; conditions: glazed tile; for Average % Knockdown & Mortality after 3 hr / Average % Knockdown & Mortality after 5 hr / Average % Knockdown & Mortality after 24 hr / Average % Knockdown & Mortality after 1 hr: Table 61, German cockroach (Monheim), continuous exposure; for Average % Knockdown & Mortality after 1 hr: adjuvant = Compound A 1% + Compound B 0.5%
Method in brief: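 Male cockroaches continuously exposed on treated glazed tile, dried overnight before exposure; at least three replicates. Knockdown/mortality scored at intervals from 5 or 10 min, over runs lasting 20 min to 24 h depending on test.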

[3] = system: Red Imported Fire ant (RIFA), Solenopsis invicta; assay: Knockdown/mortality of ant workers under continuous exposure on treated glazed tile; assay type: in vivo; conditions: for Average % Mortality after 1 hr / Average % Mortality after 1.5 hr / Average % Mortality after 2 hr / Average % Mortality after 3 hr / Average % Mortality after 30 min: Table 60, Red Imported Fire ant, continuous exposure; for Average % Mortality after 30 min: adjuvant = Compound A 1% + Compound B 0.5%
Description: Treatments were allowed to dry overnight. […] Treatments were replicated minimum three times.
as §1

[4] = system: Argentine ant, Linepithema humile; assay: as above; conditions: continuous exposure; for Average % Mortality after 15 min: adjuvant = Compound A 1% + Compound B 0.5%
Method in brief: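 0.5% AI imidacloprid in acetone, alone or with 0.1, 1.0 or 5.0% additive (benzenepropanoic acid, oleic acid, methyl oleate, methyl linoleate, methyl palmitate or BHA), 1 ml dried overnight on glazed tile (~161 cm^2). Ten workers confined under continuous exposure, water from 3 h; knockdown/mortality scored at intervals and 24 h; ≥3 replicates.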

[5] = system: housefly, Musca domestica; assay: Housefly continuous exposure on treated glazed tile (paper cup arena); assay type: in vivo; conditions: Table 58, housefly, glazed tile, continuous exposure; for Average % Knockdown & Mortality after 1 hr: adjuvant = Compound A 1% + Compound B 0.5%
Description: Treatments were allowed to dry overnight. The housefly testing arena consisted of a 16 oz. paper cup where the bottom of the cup was removed and replaced with a piece of standard window screen. Ten adult houseflies (mixed ratio) were placed in each cup and covered with a 4″×5″ index card to prevent escape. Houseflies were continuously exposed to the treatment by inverting the testing arena and sliding the cup from the index card to the treated tile surface. Treatments were replicated a minimum of three times.

[6] = system: Odorous House ant, Tapinoma sessile; assay: Knockdown/mortality of ant workers under continuous exposure on treated glazed tile; assay type: in vivo; conditions: Table 59, Odorous House ant, glazed tile, continuous exposure; for Average % Knockdown & Mortality after 15 min: adjuvant = Compound A 1% + Compound B 0.5%
Method in brief: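 Treatments applied to about 161 cm2 glazed tile and dried overnight, with at least three replicates.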

[7] = Table 57, Argentine ant, glazed tile

Structure (SMILES) | Average % Mortality after 30 min [4, 7] [%] | Average % Mortality after 45 min [4, 7] [%] | Average % Mortality after 60 min [4, 7] [%] | Average % Mortality after 15 min [4, 7] [%] | Average % Knockdown & Mortality after 3 hr [2] [%] | Average % Knockdown & Mortality after 5 hr [2] [%] | Average % Knockdown & Mortality after 24 hr [2] [%] | Average % Knockdown & Mortality after 1 hr [2] [%] | Average % Knockdown & Mortality after 3 hr [5] [%] | Average % Knockdown & Mortality after 5 hr [5] [%] | Average % Knockdown & Mortality after 7 hr [5] [%] | Average % Knockdown & Mortality after 24 hr [5] [%] | Average % Knockdown & Mortality after 1 hr [5] [%] | Average % Mortality after 1 hr ([3]; glazed tile) [%] | Average % Mortality after 1.5 hr ([3]; glazed tile) [%] | Average % Mortality after 2 hr ([3]; glazed tile) [%] | Average % Mortality after 3 hr ([3]; glazed tile) [%] | Average % Mortality after 30 min ([3]; glazed tile) [%] | Average % Knockdown & Mortality after 30 min [6] [%] | Average % Knockdown & Mortality after 45 min [6] [%] | other results
CC1(C)C(C=C(Cl)Cl)C1C(=O)OCc1cccc(Oc2ccccc2)c1 (stereo not shown) [permethrin, reference compound] | – | – | – | – | – | – | – | – | – | – | – | – | – | – | – | – | – | – | – | – | toxicity / efficacy of the substance alone (summary in words) [1]: very fast acting; toxicity / efficacy of the substance alone (summary in words) ([2]; German cockroach Monheim): effective; toxicity / efficacy of the substance alone (summary in words) ([3]; RIFA, glazed tile): active; time at which near 100% mortality was achieved ([3]; permethrin 0.5% AI with or without adjuvant (FIG. 39)): about 13 minutes
CC[S+]([O-])c1c(C#N)nn(-c2c(Cl)cc(C(F)(F)F)cc2Cl)c1N (stereo not shown) [Ethiprole (0.01%)] | 0 | 0 | 0 | 0 | 0 | 7 | 13 | 0 | 0 | 0 | 3 | 100 | 0 | 0 | 0 | 0 | 3 | 0 | 0 | 0 | Average % Mortality after 10 min ([4]; Table 54, Trial 1, acetone solution on glazed tile): 0%; Average % Mortality after 30 min ([4]; Table 54, Trial 1, glazed tile): 0%; Average % Mortality after 60 min ([4]; Table 54, Trial 1, glazed tile): 0%; Average % Mortality after 90 min ([4]; Table 54, Trial 1, glazed tile): 0%; Average % Mortality after 2 hr ([4]; Table 54, Trial 1, glazed tile): 0%; Average % Mortality after 4 hr ([4]; Table 54, Trial 1, glazed tile, 4 hr): 16%; Average % Mortality after 24 hr ([4]; Table 54, Trial 1, glazed tile): 100%; Average % Mortality after 10 min ([4]; Table 55, Trial 2, glazed tile): 0%; Average % Mortality after 30 min ([4]; Table 55, Trial 2, glazed tile): 0%; Average % Mortality after 60 min ([4]; Table 55, Trial 2, glazed tile): 0%; Average % Mortality after 90 min ([4]; Table 55, Trial 2, glazed tile): 0%; Average % Mortality after 2 hr ([4]; Table 55, Trial 2, glazed tile): 0%; Average % Mortality after 3 hr ([4]; Table 55, Trial 2, glazed tile, 3 hr): 6%; Average % Mortality after 24 hr ([4]; Table 55, Trial 2, glazed tile): 72%; Average % Knockdown & Mortality after 60 min [6]: 0%; Average % Knockdown & Mortality after 2 hr [6]: 3%; Average % Knockdown & Mortality after 15 min [6]: 0%
CC[S+]([O-])c1c(C#N)nn(-c2c(Cl)cc(C(F)(F)F)cc2Cl)c1N (stereo not shown) [Ethiprole (0.1%)] | 0 | 0 | 0 | 0 | 27 | 33 | 80 | 0 | 0 | 3 | 10 | 100 | 0 | 0 | 0 | 0 | 10 | 0 | 0 | 0 | Average % Knockdown & Mortality after 60 min [6]: 0%; Average % Knockdown & Mortality after 2 hr [6]: 0%; Average % Knockdown & Mortality after 15 min [6]: 0%

Source: patent publication US9028856B2, “Synergistic pesticide compositions” (priority 2008, dated 2015)
